The source of these data is PubChem BioAssay AID328 (DTP/NCI, 2004).

Where “and” joins values, the source holds several entries; their conditions need not be identical. Identical values can stand only once. Toxic doses and inconclusive results are not listed. Starred links: 1 amine or outer side, 2 acyl side, 3 side chain; linkers in the order of their positions; H or OH if unused. Positions of bridges follow the written chain, without caps; N, C: chain ends. Non-standard residues stand in square brackets, D forms with d. Residues, ends and D or L forms follow the SMILES beside them. Chains are numbered I, II in the order given. Actinocin(9to1) = Cc1c2oc3c(C)ccc(C(=O)[*:1])c3nc-2c(C(=O)[*:2])c(N)c1=O; NMeV = CN[CH](C(=O)O)C(C)C; Sar = CNCC(=O)O

The subject of the test is BDF1 mice, P388 leukemia ip, median survival T/C. Nature of the test: NCI In Vivo Anticancer Drug Screen. Data for tumor model P388 Leukemia (intraperitoneal) in B6D2F1 (BDF1) mice. As to conditions: endpoint: median survival time, higher = longer survival. The gist of the method: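 In tumour-bearing mice, survival after compound treatment is set against the vehicle group and given as a quotient.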

Setting [1] is: dose: 100.0 mg/kg/injection, schedule: Q04DX003 (ip), vehicle: saline.
The mark [2] stands for this setting: dose: 200.0 mg/kg/injection, schedule: Q04DX003 (ip), vehicle: saline.
The mark [3] stands for this setting: dose: 400.0 mg/kg/injection, schedule: Q04DX003 (ip), vehicle: saline.
Where [4] appears, read: dose: 50.0 mg/kg/injection, schedule: Q01DX009 (ip), vehicle: saline with Tween-80.
Setting [5] is: dose: 100.0 mg/kg/injection, schedule: Q01DX009 (ip), vehicle: saline with Tween-80.
Setting [6] is: dose: 100.0 mg/kg/injection, schedule: Q04DX003 (ip), vehicle: saline with Tween-80.
The mark [7] stands for this setting: dose: 200.0 mg/kg/injection, schedule: Q01DX009 (ip), vehicle: saline with Tween-80.
[8] abbreviates: dose: 400.0 mg/kg/injection, schedule: Q01DX009 (ip), vehicle: saline with Tween-80.
The mark [9] stands for this setting: dose: 25.0 mg/kg/injection, schedule: Q04DX003 (ip), vehicle: saline with Tween-80.
Where [10] appears, read: dose: 50.0 mg/kg/injection, schedule: Q04DX003 (ip), vehicle: saline with Tween-80.
[11] abbreviates: dose: 12.5 mg/kg/injection, schedule: Q01DX009 (ip), vehicle: saline with Tween-80.
Where [12] appears, read: dose: 25.0 mg/kg/injection, schedule: Q01DX009 (ip), vehicle: saline with Tween-80.

Take `O=C(c1cc(Cl)cc(Cl)c1)N1CC1`: the T/C (dose: 25.0 mg/kg/injection, schedule: Q01DX009 (ip), vehicle: saline) is 106 % of control; the T/C (dose: 25.0 mg/kg/injection, schedule: Q04DX003 (ip), vehicle: saline) was 100 % of control; the T/C (dose: 50.0 mg/kg/injection, schedule: Q01DX009 (ip), vehicle: saline) is 113 % of control; the T/C (dose: 50.0 mg/kg/injection, schedule: Q04DX003 (ip), vehicle: saline) was 100 % of control; the T/C (dose: 100.0 mg/kg/injection, schedule: Q01DX009 (ip), vehicle: saline) is 103 % of control; the T/C under setting [1] was 98 % of control. Moreover, the T/C is 113 % of control (dose: 200.0 mg/kg/injection, schedule: Q01DX009 (ip), vehicle: saline); 114 % of control under setting [2]; 113 % of control (dose: 400.0 mg/kg/injection, schedule: Q01DX009 (ip), vehicle: saline); 106 % of control under setting [3].

As for `Oc1cccc2cccnc12`, the T/C is 100 % of control under setting [4] and 97 % of control under setting [5].

Turning to `O=C(/C=C/c1ccc(Br)cc1)c1ccc(Cl)cc1`, the T/C under setting [5] is 100 % of control; the T/C under setting [6] is 100 % of control; the T/C under setting [7] was 110 % of control; the T/C (dose: 200.0 mg/kg/injection, schedule: Q04DX003 (ip), vehicle: saline with Tween-80) was 100 % of control; the T/C under setting [8] was 100 % of control; the T/C (dose: 400.0 mg/kg/injection, schedule: Q04DX003 (ip), vehicle: saline with Tween-80) is 90 % of control.

With `Cc1c2oc3c(C)ccc(C(=O)NC4C(=O)NC(C(C)C)C(=O)N(C)CC(=O)N(C)CC(=O)N(C)C(C(C)C)C(=O)OC4C)c3nc-2c(C(=O)NC2C(=O)NC(C(C)C)C(=O)N(C)CC(=O)N(C)CC(=O)N(C)C(C(C)C)C(=O)OC2C)c(N)c1=O` (stereo not given) (I: TV[Sar][Sar][NMeV] / II: TV[Sar][Sar][NMeV]; ester I:1-I:C, II:1-II:C; linker I:N-II:N via Actinocin(9to1); configuration not given here), the T/C (dose: 125.0 micrograms/kg/injection, schedule: Q01DX009 (ip), vehicle: saline + alcohol) was 190 % of control; the T/C (dose: 250.0 micrograms/kg/injection, schedule: Q01DX009 (ip), vehicle: saline + alcohol) is 233 % of control; the T/C (dose: 500.0 micrograms/kg/injection, schedule: Q01DX009 (ip), vehicle: saline + alcohol) was 239 % of control; the T/C (dose: 750.0 micrograms/kg/injection, schedule: Q04DX003 (ip), vehicle: saline + alcohol) was 218 % of control; the T/C (dose: 1500.0 micrograms/kg/injection, schedule: Q04DX003 (ip), vehicle: saline + alcohol) was 239 % of control and 166 % of control; the T/C (dose: 3000.0 micrograms/kg/injection, schedule: Q04DX003 (ip), vehicle: saline + alcohol) is 175 % of control.

As for `Brc1cnc[nH]1`, the T/C reads like this: (dose: 25.0 mg/kg/injection, schedule: Q01DX009 (ip), vehicle: water) 103 % of control; (dose: 25.0 mg/kg/injection, schedule: Q04DX003 (ip), vehicle: water) 106 % of control; (dose: 50.0 mg/kg/injection, schedule: Q01DX009 (ip), vehicle: water) 91 % of control; (dose: 50.0 mg/kg/injection, schedule: Q04DX003 (ip), vehicle: water) 94 % of control and 106 % of control; (dose: 100.0 mg/kg/injection, schedule: Q01DX009 (ip), vehicle: water) 87 % of control; (dose: 100.0 mg/kg/injection, schedule: Q04DX003 (ip), vehicle: water) 93 % of control (2×) and 110 % of control. Further, the T/C reads like this: (dose: 200.0 mg/kg/injection, schedule: Q01DX009 (ip), vehicle: water) 100 % of control; (dose: 200.0 mg/kg/injection, schedule: Q04DX003 (ip), vehicle: water) 89 % of control and 97 % of control; (dose: 300.0 mg/kg/injection, schedule: Q04DX003 (ip), vehicle: water) 98 % of control; (dose: 400.0 mg/kg/injection, schedule: Q04DX003 (ip), vehicle: water) 94 % of control and 99 % of control and 103 % of control.

As to `O=C1C(C2CCCCC2)CCCC1C1CCCCC1` (stereo not given), the T/C is 107 % of control (dose: 100.0 mg/kg/injection, schedule: Q01DX001 (ip), vehicle: saline with Tween-80) and 98 % of control (dose: 200.0 mg/kg/injection, schedule: Q01DX001 (ip), vehicle: saline with Tween-80).

Take `O=C(O)c1cc(C(=O)O)cc(S(=O)(=O)F)c1`: the T/C was 104 % of control (dose: 75.0 mg/kg/injection, schedule: Q04DX003 (ip), vehicle: saline with Tween-80); 105 % of control under setting [5]; 108 % of control (dose: 150.0 mg/kg/injection, schedule: Q04DX003 (ip), vehicle: saline with Tween-80); 95 % of control under setting [7]; 104 % of control (dose: 300.0 mg/kg/injection, schedule: Q04DX003 (ip), vehicle: saline with Tween-80).

For the compound `C/C(CC1(O)C(=O)Nc2ccccc21)=N\O` (stereo not given), the T/C runs as follows: under setting [5], 100 % of control; under setting [7], 95 % of control; under setting [8], 104 % of control.

For `CCOC(=O)c1ccc(NC(N)=O)cc1`, the T/C by setting is: under setting [9], 100 % of control; under setting [10], 102 % of control; under setting [6], 99 % of control.

With `C[C@]12C=CC(=O)C=C1CC[C@H]1[C@@H]3C[C@@H](O)[C@](O)(C(=O)CO)[C@@]3(C)C[C@H](O)[C@@]12F`, the T/C was 100 % of control (dose: 50.0 mg/kg/injection, schedule: Q01DX009 (ip), vehicle: Klucel (hydroxypropylcellulose) (HPC)); 118 % of control (dose: 132.0 mg/kg/injection, schedule: Q01DX009 (ip), vehicle: Klucel (hydroxypropylcellulose) (HPC)); 113 % of control (dose: 200.0 mg/kg/injection, schedule: Q01DX009 (ip), vehicle: Klucel (hydroxypropylcellulose) (HPC)).

In the case of `Cc1ccc(S)cc1`, the T/C was 104 % of control under setting [11]; 95 % of control under setting [12]; 100 % of control under setting [9]; 108 % of control under setting [4]; 91 % of control under setting [10].

Take `Clc1[nH]nc2ccccc12`: the T/C is, setting by setting: under setting [11], 91 % of control; under setting [12], 87 % of control; under setting [4], 95 % of control; (dose: 50.0 mg/kg/injection, schedule: Q04DX003 (ip), vehicle: saline sonified) 90 % of control; under setting [5], 100 % of control; (dose: 100.0 mg/kg/injection, schedule: Q04DX003 (ip), vehicle: saline sonified) 90 % of control. For the same compound, the T/C (dose: 200.0 mg/kg/injection, schedule: Q04DX003 (ip), vehicle: saline sonified) was 90 % of control.

For the compound `O=S(=O)(O)CCC(CO)(CO)CO`, the T/C is 100 % of control under setting [1], 95 % of control under setting [2] and 95 % of control under setting [3].
